± gives the expanded uncertainty stated by the source.
Assays:
[1] = molar heat capacity at constant pressure; conditions: 101 kPa, Liquid, Small sample (50 mg) DSC
[2] = 101.33 kPa, Liquid; for speed of sound: Pulse-echo method; for mass density: Pycnometric method

CCCCCCCCCCO [decan-1-ol]
Conditions | mass density [kg/m3] | molar heat capacity at constant pressure [J/K/mol] | speed of sound [m/s]
[1], 290.91 K | – | 364.49 ± 5.7 | –
[1], 291.15 K | – | 364.8 ± 5.7 | –
[1], 292.15 K | – | 366.05 ± 5.7 | –
[1], 293.15 K | – | 367.19 ± 5.7 | –
[1], 294.15 K | – | 368.25 ± 5.7 | –
[1], 295.15 K | – | 369.35 ± 5.7 | –
[1], 296.15 K | – | 370.35 ± 5.7 | –
[1], 297.15 K | – | 371.6 ± 5.8 | –
[1], 298.15 K | – | 372.77 ± 5.8 | –
[1], 299.15 K | – | 373.71 ± 5.8 | –
[1], 300.15 K | – | 374.91 ± 5.8 | –
[1], 301.15 K | – | 375.89 ± 5.8 | –
[1], 302.15 K | – | 377.05 ± 5.8 | –
[1], 303.15 K | – | 378.2 ± 5.9 | –
[1], 304.15 K | – | 379.47 ± 5.9 | –
[1], 305.15 K | – | 380.58 ± 5.9 | –
[1], 306.15 K | – | 381.75 ± 5.9 | –
[1], 307.15 K | – | 382.43 ± 5.9 | –
[1], 308.15 K | – | 384.6 ± 6 | –
[1], 309.15 K | – | 385.42 ± 6 | –
[1], 310.15 K | – | 386.61 ± 6 | –
[1], 311.15 K | – | 387.89 ± 6 | –
[1], 312.15 K | – | 389.03 ± 6 | –
[1], 313.15 K | – | 390.28 ± 6 | –
[1], 314.15 K | – | 391.58 ± 6.1 | –
[1], 315.15 K | – | 392.8 ± 6.1 | –
[1], 316.15 K | – | 394.11 ± 6.1 | –
[1], 317.15 K | – | 395.3 ± 6.1 | –
[1], 318.15 K | – | 396.66 ± 6.2 | –
[1], 318.39 K | – | 396.93 ± 6.2 | –
[2], 293.1 K | – | – | 1397.2 ± 1.6
[2], 293.15 K | 829.77 ± 0.67 | – | –
[2], 298.07 K | – | – | 1380 ± 1.6
[2], 298.15 K | 826.38 ± 0.67 | – | –
[2], 303.04 K | – | – | 1362.8 ± 1.6
[2], 303.15 K | 822.98 ± 0.67 | – | –
[2], 308.04 K | – | – | 1345.8 ± 1.6
[2], 308.15 K | 819.62 ± 0.67 | – | –
[2], 313.01 K | – | – | 1329 ± 1.6
[2], 313.15 K | 816.15 ± 0.68 | – | –
[2], 318.15 K | 812.67 ± 0.68 | – | –
[2], 318.18 K | – | – | 1311.7 ± 1.6

CCCCCCC [heptane]
[2]
Conditions | mass density [kg/m3] | speed of sound [m/s]
293.13 K | – | 1151.9 ± 1.2
293.15 K | 683.81 ± 0.62 | –
298.12 K | – | 1130.3 ± 1.2
298.15 K | 679.6 ± 0.62 | –
303.1 K | – | 1108.8 ± 1.2
303.15 K | 675.38 ± 0.63 | –
308.07 K | – | 1087.5 ± 1.2
308.15 K | 671.05 ± 0.64 | –
313.03 K | – | 1066.3 ± 1.2
313.15 K | 666.78 ± 0.64 | –
318.15 K | 662.42 ± 0.65 | –
318.33 K | – | 1043.9 ± 1.2

— the NIST ThermoML archive (doi:10.1016/j.jct.2005.10.009)
